As usually defined, the IC50 is the concentration that gives 50% inhibition.

Structures are written as SMILES.

This assay addresses T1, human M5 receptors (hM5) (Homo sapiens, UniProt P08912).
T1 construct: expressed in transfected cells
T1 sequence (P08912 1-532): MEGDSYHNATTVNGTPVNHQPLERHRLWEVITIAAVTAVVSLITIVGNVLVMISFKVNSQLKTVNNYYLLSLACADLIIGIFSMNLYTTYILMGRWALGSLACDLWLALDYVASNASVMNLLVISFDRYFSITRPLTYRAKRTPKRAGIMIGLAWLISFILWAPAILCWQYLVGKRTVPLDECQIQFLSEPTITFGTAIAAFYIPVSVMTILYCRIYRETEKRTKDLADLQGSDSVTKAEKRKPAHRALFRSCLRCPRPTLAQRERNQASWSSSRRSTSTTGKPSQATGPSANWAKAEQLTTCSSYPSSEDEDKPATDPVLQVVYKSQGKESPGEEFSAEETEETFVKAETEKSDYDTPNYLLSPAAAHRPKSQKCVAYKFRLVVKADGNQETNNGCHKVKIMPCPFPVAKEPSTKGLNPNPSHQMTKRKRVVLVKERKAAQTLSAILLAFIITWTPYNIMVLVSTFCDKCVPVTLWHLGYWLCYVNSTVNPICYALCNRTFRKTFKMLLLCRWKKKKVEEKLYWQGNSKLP
In words: Cell-based functional calcium mobilization assay of mAChR M5 activity (inhibition of EC80 acetylcholine response) in CHO cells. The note with it: CHO cells stably expressing hM5; for IC50: calcium flux (Fluo-4), EC80 acetylcholine addition; for EC80 MIN: minimum of EC80 acetylcholine response, normalized to maximum acetylcholine response. The protocol:
All functional cell-based assays were performed essentially as previously described (Marlo et al., Mol.Pharm. 2009, 75(3), 577-588; Brady et al., J. Pharm. & Exp. Ther. 2008, 327, 941-953). Initial, single point (10 µM) competitive and non-competitive inhibitor characterization was performed in stable Chinese Hamster Ovary (CHO) cell lines constitutively expressing human M5 receptors. These were plated at 15,000 cells per 20 µL per well in Greiner 384-well black-walled, TC-treated, clear-bottomed plates (Fisher) in Ham’s F12 medium supplemented with 10% FBS and 20 mM HEPES. Cells were incubated overnight at 37° C. under 5% CO2. The following day, medium was exchanged with assay buffer (Hank’s Balanced Salt Solution supplemented with 20 mM HEPES and 2.5 mM Probenecid, pH 7.4) leaving 20 µL of assay buffer in each well. This was followed by the addition of 20 µL of 2.3 µM of Fluo-4 AM (Invitrogen) in assay buffer (final concentration 1.15 µM). The cells were then incubated 50 minutes at 37° C. under 5% CO2. The assay buffer plus dye was then exchanged with fresh assay buffer leaving a volume of 20 µL in each well. Test compounds were diluted into assay buffer to a 2X (20 µM) concentration in 0.2% dimethylsulfoxide (DMSO) in columns 3 - 22 with matching DMSO concentration in columns 1, 2, 23, and […]; compounds were added to the assay for a final concentration of 10 µM and a final DMSO concentration of 0.1%. Acetylcholine (Sigma-Aldrich) was prepared to provide 5X concentrations of EC20, EC80, and ECmax in the triple-addition assay, providing a signal window to view agonism, potentiation, and inhibition of the acetylcholine response as well as a means to normalize to the maximum acetylcholine response.
Either an FDSS (Hamamatsu) or Panoptic (WaveFront Biosciences) kinetic imaging plate reader was used for assay execution and measurement of calcium flux. After establishing baseline fluorescence, test compounds (20 µL) were added to the cells using the reader’s integrated pipettor and allowed to equilibrate for 140 seconds before addition of the EC20 concentration of acetylcholine (10 µL) along with vehicle in selected DMSO-only wells in the outer two columns. The EC80 concentration of acetylcholine (10 µL) was added 125 seconds after the EC20 addition along with ECmax concentration in the wells receiving vehicle in the second addition. The raw fluorescence data from each well was normalized to the corresponding initial fluorescence reading (static ratio). The maximum fluorescence value following each addition was determined and the minimum value within that same timeframe was subtracted for each well then normalized to the average of the ECmax maximum-minimum response, providing a %AChmax value for each addition for each well. The single point values represent mean values determined within the EC80 addition timeframe obtained from at least three independent determinations performed in triplicate or greater (error bars represent +/- SEM) unless otherwise specified.
Further characterization of competitive and non-competitive inhibitor compounds (compound potency and mAChR subtype-selectivity) was performed on the FDSS with calcium mobilization assays performed as previously described (Marlo et al., 2009; Brady et al., 2008) and in a format similar to that described above using the same reagents. CHO cells stably expressing hM1, hM2/Gqi5, hM3, hM4/Gqi5, hM5, rM1, rM2/Gqi5, rM3, rM4/Gqi5, or rMs were plated in the manner described above. A ten-point concentration range of test compound was serial diluted in assay buffer to 2X final concentration and acetylcholine was diluted in assay buffer to 5X of the EC20 and EC80 concentrations, determined empirically and 5X maximal (2 mM final concentration) stock concentrations. FDSS protocols were carried out as described above; the static ratio was calculated and the minimum response subtracted from the maximum response within the timeframe of each addition. […]
(Calcium flux is commonly read through the fluorescence of an indicator in the cells.)

On to `C[C@@H]1C[C@@H](C(=O)Nc2ccc3scnc3c2)CCN1S(=O)(=O)c1cccc2nsnc12` (racemic) [Compound 121, trans-(rac)-1-(benzo[c][1,2,5]thiadiazol-4-ylsulfonyl-N-(benzo[d]thiazol-5-yl)-2-methylpiperidine-4-carboxamide], for which the IC50 was determined as 449 nM and the “EC80 MIN” value worked out at 3%.
The matching figures for `C[C@@H]1C[C@@H](C(=O)Nc2ccc3scnc3c2)CCN1S(=O)(=O)c1ccc2c(c1)CCO2` (racemic) [Compound 122, trans-(rac)-N-(benzo[d]thiazol-5-yl)-1-((2.3-dihydrobenzofuran-5-yl)sulfonyl)-2-methylpiperidine-4-carboxamide]: 94 nM and 3%.
In the case of `Cc1nn(C)cc1S(=O)(=O)N1CC[C@H](C(=O)Nc2ccc3scnc3c2)C[C@H]1C` (racemic) [Compound 123, trans-(rac)-N-(benzo[d]thiazol-5-yl)-1-((1,3-dimethyl-1H-pyrazol-4-yl)sulfonyl)-2-methylpiperidine-4-carboxamide], the IC50 amounted to 174 nM and the “EC80 MIN” value is given as 3%.
For `CC1(C)COc2ccc(S(=O)(=O)N3CC4CC4(C(=O)Nc4ccc5scnc5c4)C3)cc21` (racemic) [Compound 130, (rac)-N-(benzo[d]thiazol-5-yl)-3-((3,3-dimethyl-2,3-dihydrobenzofuran-5-yl)sulfonyl)-3-azabicyclo[3.1.0)hexane-1-carboxamide] the same measures were over 10000 nM and 62%.
As for `CC1COc2ccc(S(=O)(=O)N3CCC(C(=O)Nc4ccc5scnc5c4)CC3)cc21` (racemic) [Compound 131, (rac)-N-(benzo[d]thiazol-5-yl)-1-((3-methyl-2,3-dihydrobenzofuran-5-yl)sulfonyl)piperidine-4-carboxamide], the IC50 was determined as 109 nM and the “EC80 MIN” value is listed as 3%.
For `C[C@@H]1C[C@@H](C(=O)Nc2ccc3scnc3c2)CCN1S(=O)(=O)c1ccc2ncsc2c1` (racemic) [Compound 134, trans-(rac)-N-(benzo[d]thiazol-5-yl)-1-(benzo[d]thiazol-6-ylsulfonyl)-2-methylpiperidine-4-carboxamide] the same measures were 580 nM and 3%.
The matching figures for `Cc1cc2c(cc1S(=O)(=O)N1CCC(C(=O)Nc3ccc4scnc4c3)CC1)C(C)CO2` (racemic) [Compound 145, (rac)-N-(benzo[d]thiazol-5-yl)-1-((3,6-dimethyl-2,3-dihydrobenzofuran-5-yl)sulfonyl)piperidine-a-carboxamide]: 1370 nM and 3%.
Turning to `Cn1ncc(S(=O)(=O)N2CC[C@H](C(=O)Nc3ccc4scnc4c3)[C@@H](F)C2)c1Cl` (racemic) [Compound 159, trans-(rac)-N-(benzo[d]thiazol-5-yl)-1-((5-chloro-1-methyl-1H-pyrazol-4-yl)sulfonyl)-3-fluoropiperidine-4-carboxamide], the half-maximal inhibitory concentration (IC50) was 10 nM and the “EC80 MIN” value was found to be 2%.
Turning to `Cc1ncc(S(=O)(=O)N2CC[C@H](C(=O)Nc3ccc4scnc4c3)[C@@H](F)C2)s1` (racemic) [Compound 160, trans-(rac)-N-(benzo[d]thiazol-5-yl)-3-fluoro-1-((2-methylthiazol-5-yl)sulfonyl)piperidine-4-carboxamide], the 50% inhibitory concentration (IC50) stood at 13 nM and the “EC80 MIN” value is 2%.
The matching figures for `O=C(Nc1ccc2scnc2c1)C1CCN(S(=O)(=O)c2ccc(Cl)s2)CC1` [Compound 1, N-(benzo[d]thiazol-5-yl)-1-((5-chlorothiophen-2-yl)sulfonyl)piperidine-4-carboxamide]: 2740 nM and 3%.
For `O=C(Nc1ccc2scnc2c1)C1CCN(S(=O)(=O)c2ccc3c(c2)CCO3)CC1` [Compound 2, N-(benzo[d]thiazol-5-yl)-1-((2,3-dihydrobenzofuran-5-yl)sulfonyl)piperidine-4-carboxamide] the same measures were 72 nM and 2%.
The matching figures for `O=C(Nc1ccc2scnc2c1)C1CCN(S(=O)(=O)c2ccc3ncsc3c2)CC1` [Compound 3, N-(benzo[d]thiazol-5-yl)-1-(benzo[d]thiazol-6-ylsulfonyl)piperidine-4-carboxamide]: 670 nM and 5%.
On to `O=C(Nc1ccc2scnc2c1)C1CCN(S(=O)(=O)c2ccc3ncccc3c2)CC1` [Compound 4, N-(benzo[d]thiazol-5-yl)-1-(quinolin-6-ylsulfonyl)piperidine-4-carboxamide], for which the half-maximal inhibitory concentration (IC50) came to 959 nM and the “EC80 MIN” value came out at 2%.
For `Cc1nn(C)cc1S(=O)(=O)N1CCC(C(=O)Nc2ccc3scnc3c2)CC1` [Compound 5, N-(benzo[d]thiazol-5-yl)-1-((1,3-dimethyl-1H-pyrazol-4-yl)sulfonyl)piperidine-4-carboxamide] the same measures were 304 nM and 2%.
For `O=C(Nc1ccc2scnc2c1)C1CCN(S(=O)(=O)c2ccc(Cl)nc2)CC1` [Compound 7, N-(benzo[d]thiazol-5-yl)-1-((6-chloropyridin-3-yl)sulfonyl)piperidine-4-carboxamide] the same measures were 184 nM and 4%.
The matching figures for `O=C(Nc1ccc2scnc2c1)C1CCN(S(=O)(=O)c2ccsc2)CC1` [Compound 8, N-(benzo[d]thiazol-5-yl)-1-(thiophen-3-ylsulfonyl)piperidine-4-carboxamide]: over 10000 nM and 23%.
On to `N#Cc1cc(S(=O)(=O)N2CCC(C(=O)Nc3ccc4scnc4c3)CC2)ccc1Cl` [Compound 9, N-(benzo[d]thiazol-5-yl)-1-((4-chloro-3-cyanophenyl)sulfonyl)piperidine-4-carboxamide], for which the IC50 was over 10000 nM and the “EC80 MIN” value came to 38%.
The matching figures for `COc1ccc(S(=O)(=O)N2CCC(C(=O)Nc3ccc4scnc4c3)CC2)cn1` [Compound 10, N-(benzo[d]thiazol-5-yl)-1-((6-methoxypyridin-3-yl)sulfonyl)piperidine-4-carboxamide]: 1320 nM and 3%.
In the case of `O=C(Nc1ccc2scnc2c1)C1CCN(S(=O)(=O)c2ccc(C(F)(F)F)nc2)CC1` [Compound 11, N-(benzo[d]thiazol-5-yl)-1-((6-(trifluoromethyl)pyridin-3-yl)sulfonyl)piperidine-4-carboxamide], the IC50 was over 10000 nM and the “EC80 MIN” value was determined as 52%.
For `O=C(Nc1ccc2[nH]cnc2c1)C1CCN(S(=O)(=O)c2ccc3c(c2)CCO3)CC1` [Compound 13, N-(1H-benzo[d]imidazol-5-yl)-1-((2,3-dihydrobenzofuran-5-yl)sulfonyl)piperidine-4-carboxamide] the same measures were over 10000 nM and 22%.

(Values after patent US20230303552A1, “ARYLSULFONYL DERIVATIVES AND THEIR USE AS MUSCARINIC ACETYLCHOLINE RECEPTOR M5 INHIBITORS” (Vanderbilt University, priority 2020, published 2023).)
